# Legend:
# MPC1 D118G = assay: Growth of yeast expressing MPC1 D118G in the presence of UK-5099; format: cell-based, Saccharomyces cerevisiae; settings: D118G substitution in MPC1; 500 μM UK-5099 in plates
# Description: (§1) A plasmid library harboring MPC1 mutants was generated by PCR mutagenesis using methods previously described [Hinman et al., 1981]. mpc1Δ mpc3Δ mae1Δ triple mutant yeast cells were transformed with the MPC1 mutant library and plated onto SD-Ura-Leu supplemented 500 μM UK-5099. Plates were incubated at 30° C. for 72 hours and mutant plasmids were isolated from viable colonies, amplified in E. coli., and then transformed into naive mpc1Δ mpc3Δ mae1Δ triple mutant yeast cells to confirm the conferral of resistance to UK-5099. An MPC1 mutant containing a D118G substitution was recovered from this screen. To quantify UK-5099 resistance conferred by the D118G substitution, uniform suspensions of mpc1Δ mpc3Δ mae1Δ triple mutant yeast cells were transformed with 2 μg empty vector, plasmid harboring wild-type MPC1, or plasmid harboring MPC1 D 118G, and then plated onto either SD-Ura, SD-Ura-Leu, or SD-Ura-Leu plus 500 μM UK-5099.
# MPC1-D118G = target: T1, MPC1-D118G (Saccharomyces cerevisiae, UniProt P38857+P53157, D118G); assay: 14C-pyruvate uptake into isolated yeast mitochondria expressing MPC1-D118G; format: biochemical; settings: 0.2 mM UK-5099, 2 min preincubation, vs DMSO
# T1 construct: expressed in transfected cells; host or cells: S. cerevisiae mpc1Δ strain carrying an MPC1-D118G plasmid; isolated mitochondria
# T1 sequence (P53157 whole entry D118G, one chain of several): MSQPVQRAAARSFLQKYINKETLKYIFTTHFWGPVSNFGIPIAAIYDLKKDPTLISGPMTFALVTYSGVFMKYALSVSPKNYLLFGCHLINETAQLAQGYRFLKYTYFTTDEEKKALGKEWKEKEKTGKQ
# Description: (§2) Yeast mitochondria were isolated using a simplified version of the method described by Boldogh and Pon [Wittig et al., 2006]. Briefly, yeast were grown in synthetic 2% raffinose media to an A600˜3.0 and collected. The cells were pelleted, washed with sterile water, re-pelleted, and then frozen at −80° C. Mitochondrial isolation began by thawing the cells on ice, digesting the cell wall with lyticase (Sigma) for one hour to generate spheroplasts. Following 40 minutes in regeneration buffer, spheroplasts were lysed using a Dounce homogenizer. The mitochondria were further purified through several high and low speed centrifugation steps.
# (§3) Mitochondria used for pyruvate uptake experiments were extracted from live cells, kept on ice and used within 5 hours of harvest without freezing. An estimate of mitochondrial concentration was calculated using A280. Samples were then diluted to yield equal mitochondrial mass and centrifuged at 10000 rpm for 10 minutes to pellet mitochondria. The supernatant was then removed and the mitochondrial pellet was resuspended in respiratory buffer (120 mM KCl, 5 mM KH2PO4, 1 mM EGTA, and 3 mM HEPES pH 7.4) and placed on ice.
# (§4) To initiate pyruvate uptake, 50 μL of mitochondria was added to 100 μL of room temperature respiratory buffer at pH 6.8 in a microcentrifuge tube. […] Five biological replicates were analyzed per group. […]
# MPC1 = target: T2, MPC1 (Saccharomyces cerevisiae, UniProt P38857+P53157); assay: 14C-pyruvate uptake into isolated yeast mitochondria expressing wild-type MPC1; format: biochemical; settings: 0.2 mM UK-5099, 2 min preincubation, vs DMSO
# T2 construct: expressed in transfected cells; host or cells: S. cerevisiae mpc1Δ strain carrying an MPC1 plasmid; isolated mitochondria
# T2 sequence (P53157 1-130): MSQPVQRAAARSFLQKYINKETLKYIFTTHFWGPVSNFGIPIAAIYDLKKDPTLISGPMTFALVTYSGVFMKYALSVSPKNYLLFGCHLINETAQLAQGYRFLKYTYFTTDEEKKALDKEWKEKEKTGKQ
# T2 sequence (P38857 1-129): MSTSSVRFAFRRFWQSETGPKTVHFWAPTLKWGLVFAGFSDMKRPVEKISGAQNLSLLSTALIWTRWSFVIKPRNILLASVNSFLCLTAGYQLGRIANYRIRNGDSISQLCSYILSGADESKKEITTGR
# Description: as §2, §3, §4
# mae1Δmpc1Δ double mutant = assay: Growth of mae1Δmpc1Δ yeast expressing wild-type MPC1 on glucose medium lacking leucine; format: cell-based, Saccharomyces cerevisiae; settings: rescue by transgenic wild-type MPC1; 500 μM UK-5099 in plates
# From the text: Saccharomyces cerevisiae haploid strain BY4741 (MATa his3 leu2 met15 ura3) was used as the parental wild-type strain in the mae1Δ mpc1Δ spot tests and JRY472 (W303a MATa his3 leu2 met15 trp1 ura3) was used as the strain for all other experiments. Single deletion mutations were created in diploid strains by the standard PCR-based homologous recombination method using KanMX4 (kanamycin resistance), NatMX4 (nourseothricin resistance), or HphMX4 (hygromycin B resistance) cassettes to replace the entire gene, followed by sporulation and tetrad dissection to isolate the desired haploid knockout. Double and triple deletion mutants were created by standard crosses. Deletion strains were verified by PCR.
# as §1, with “Plates were incubated at 30° C. for 72 hours and mutant plasmids were isolated from viable colonies, amplified in E. coli., and then transformed into naive mpc1Δ mpc3Δ mae1Δ triple mutant yeast cells to confirm the conferral of resistance to UK-5099. An MPC1 mutant containing a D118G substitution was recovered from this screen.” left out
# [1] = target: T3, mitochondrial pyruvate carrier (Rattus norvegicus, UniProt P38718+P63031); settings: Halestrap 1975; cited from earlier work
# T3 sequence (P63031 1-109): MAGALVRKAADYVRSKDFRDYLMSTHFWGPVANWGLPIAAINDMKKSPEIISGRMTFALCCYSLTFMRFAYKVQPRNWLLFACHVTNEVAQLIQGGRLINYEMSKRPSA
# T3 sequence (P38718 1-127): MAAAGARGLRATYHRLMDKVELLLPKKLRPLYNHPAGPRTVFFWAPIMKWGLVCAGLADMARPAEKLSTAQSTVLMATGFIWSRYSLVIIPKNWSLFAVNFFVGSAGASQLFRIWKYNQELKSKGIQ
compound,measurement,setting,value
N#C/C(=C\c1cn(-c2ccccc2)c2ccccc12)C(=O)O [UK-5099],growth in the presence of UK-5099,MPC1 D118G,conferred UK-5099 resistance
same,14C-pyruvate uptake into mitochondria,MPC1-D118G,efficient pyruvate uptake that is resistant to UK-5099
same,14C-pyruvate uptake into mitochondria,MPC1,almost completely inhibited
same,growth on glucose medium lacking leucine,mae1Δmpc1Δ double mutant,"effectively rescued by transgenic expression of wild-type MPC1 in the absence, but not the presence, of UK-5099"
same,inhibition of carrier activity,[1],specific and potent inhibitors of carrier activity
